Measured values as given in PubChem BioAssay (NCI).
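Test compounds were applied to cells in 96-well plates for 48 hours at 5 doses. At the TGI there is no net growth.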

How the values were obtained:
Experiment in all cases: DTP human tumour cell line panel, 48 h
ACHN renal = test system: ACHN renal
SF-539 CNS = test system: SF-539 CNS
T-47D breast = test system: T-47D breast
SK-MEL-28 melanoma = test system: SK-MEL-28 melanoma
CAKI-1 renal = test system: CAKI-1 renal
SR leukemia = test system: SR leukemia
DU-145 prostate = test system: DU-145 prostate
OVCAR-4 ovarian = test system: OVCAR-4 ovarian
NCI-H23 lung = test system: NCI-H23 lung
MDA-N = test system: MDA-N
HOP-62 NSCLC = test system: HOP-62 NSCLC
NCI/ADR-RES ovarian = test system: NCI/ADR-RES ovarian
UACC-62 melanoma = test system: UACC-62 melanoma
786-0 renal = test system: 786-0 renal
MDA-MB-435 = test system: MDA-MB-435
MCF7 breast = test system: MCF7 breast
HL-60(TB) leukemia = test system: HL-60(TB) leukemia
OVCAR-8 ovarian = test system: OVCAR-8 ovarian
RPMI-8226 leukemia = test system: RPMI-8226 leukemia
SN12C renal = test system: SN12C renal
SNB-19 CNS = test system: SNB-19 CNS
OVCAR-5 ovarian = test system: OVCAR-5 ovarian
MOLT-4 leukemia = test system: MOLT-4 leukemia
TK-10 renal = test system: TK-10 renal
CCRF-CEM leukemia = test system: CCRF-CEM leukemia
EKVX NSCLC = test system: EKVX NSCLC
U251 CNS = test system: U251 CNS
SF-295 CNS = test system: SF-295 CNS
A498 renal = test system: A498 renal
M14 melanoma = test system: M14 melanoma
NCI-H460 lung = test system: NCI-H460 lung
NCI-H226 lung = test system: NCI-H226 lung
MALME-3M melanoma = test system: MALME-3M melanoma
SK-MEL-2 melanoma = test system: SK-MEL-2 melanoma
PC-3 prostate = test system: PC-3 prostate
UACC-257 melanoma = test system: UACC-257 melanoma
HT29 colon = test system: HT29 colon
BT-549 breast = test system: BT-549 breast
UO-31 renal = test system: UO-31 renal
HS 578T breast = test system: HS 578T breast
SK-MEL-5 melanoma = test system: SK-MEL-5 melanoma
LOX IMVI melanoma = test system: LOX IMVI melanoma
SW-620 colon = test system: SW-620 colon
IGROV1 ovarian = test system: IGROV1 ovarian
HCT-116 colon = test system: HCT-116 colon
SF-268 CNS = test system: SF-268 CNS
KM12 colon = test system: KM12 colon
OVCAR-3 ovarian = test system: OVCAR-3 ovarian
A549 NSCLC = test system: A549 NSCLC
NCI-H522 lung = test system: NCI-H522 lung
SNB-75 CNS = test system: SNB-75 CNS
HCT-15 colon = test system: HCT-15 colon
HCC-2998 colon = test system: HCC-2998 colon
MDA-MB-231 breast = test system: MDA-MB-231 breast
K-562 leukemia = test system: K-562 leukemia
COLO 205 colon = test system: COLO 205 colon
HOP-92 NSCLC = test system: HOP-92 NSCLC
SK-OV-3 ovarian = test system: SK-OV-3 ovarian
RXF 393 renal = test system: RXF 393 renal

C=CCOc1cccc(C2(O)c3ccccc3C3=NCCCN32)c1 (configuration not stated)
TGI (ACHN renal): 26.5 µM | TGI (SF-539 CNS): 37.6 µM | TGI (T-47D breast): 45.5 µM | TGI (SK-MEL-28 melanoma): 24.7 µM | TGI (CAKI-1 renal): > 86.6 µM | TGI (SR leukemia): 32.6 µM | TGI (DU-145 prostate): > 100 µM | TGI (OVCAR-4 ovarian): > 80.1 µM | TGI (NCI-H23 lung): > 47.2 µM | TGI (MDA-N): 33.1 µM | TGI (HOP-62 NSCLC): 38.8 µM | TGI (NCI/ADR-RES ovarian): > 75.6 µM | TGI (UACC-62 melanoma): 31.6 µM | TGI (786-0 renal): 25.2 µM | TGI (MDA-MB-435): 26 µM | TGI (MCF7 breast): 32 µM | TGI (HL-60(TB) leukemia): > 35.6 µM | TGI (OVCAR-8 ovarian): > 43.2 µM | TGI (RPMI-8226 leukemia): 40.3 µM | TGI (SN12C renal): > 68.8 µM | TGI (SNB-19 CNS): 18.4 µM | TGI (OVCAR-5 ovarian): > 77.9 µM | TGI (MOLT-4 leukemia): 40 µM | TGI (TK-10 renal): > 100 µM | TGI (CCRF-CEM leukemia): 40.9 µM | TGI (EKVX NSCLC): > 35.1 µM | TGI (U251 CNS): 32.5 µM | TGI (SF-295 CNS): 7.83 µM | TGI (A498 renal): 53.2 µM | TGI (M14 melanoma): 26.1 µM | TGI (NCI-H460 lung): 36.7 µM | TGI (NCI-H226 lung): > 31.6 µM | TGI (MALME-3M melanoma): 35.1 µM | TGI (SK-MEL-2 melanoma): 17.5 µM | TGI (PC-3 prostate): > 44.4 µM | TGI (UACC-257 melanoma): 33.1 µM | TGI (HT29 colon): 27.2 µM | TGI (BT-549 breast): > 100 µM | TGI (UO-31 renal): 29.4 µM | TGI (HS 578T breast): > 78.4 µM | TGI (SK-MEL-5 melanoma): 41.9 µM | TGI (LOX IMVI melanoma): 29.4 µM | TGI (SW-620 colon): 28.7 µM | TGI (IGROV1 ovarian): > 37.4 µM | TGI (HCT-116 colon): 29.6 µM | TGI (SF-268 CNS): > 100 µM | TGI (KM12 colon): 24.7 µM | TGI (OVCAR-3 ovarian): 10.4 µM | TGI (A549 NSCLC): > 39.4 µM | TGI (NCI-H522 lung): 41.4 µM | TGI (SNB-75 CNS): 36.8 µM | TGI (HCT-15 colon): > 50 µM | TGI (HCC-2998 colon): 29.6 µM | TGI (MDA-MB-231 breast): > 100 µM | TGI (K-562 leukemia): > 35.4 µM | TGI (COLO 205 colon): 33.5 µM | TGI (HOP-92 NSCLC): > 82.6 µM | TGI (SK-OV-3 ovarian): > 100 µM

O=C(CC(=O)N(C(=O)/C=C\c1ccccc1)c1ccc(Cl)cc1)N1N=C(c2ccccc2)C(N=Nc2cccc([N+](=O)[O-])c2)C1=O (configuration not stated)
TGI (ACHN renal): > 100 µM | TGI (SF-539 CNS): 25.8 µM | TGI (T-47D breast): > 100 µM | TGI (SK-MEL-28 melanoma): 98.1 µM | TGI (CAKI-1 renal): > 100 µM | TGI (SR leukemia): 14 µM | TGI (DU-145 prostate): 91.8 µM | TGI (NCI-H23 lung): 40.2 µM | TGI (MDA-N): > 100 µM | TGI (HOP-62 NSCLC): 40.8 µM | TGI (NCI/ADR-RES ovarian): 22 µM | TGI (UACC-62 melanoma): 42.1 µM | TGI (RXF 393 renal): 36.9 µM | TGI (786-0 renal): 19.6 µM | TGI (MDA-MB-435): > 100 µM | TGI (MCF7 breast): 28.4 µM | TGI (HL-60(TB) leukemia): 11.1 µM | TGI (OVCAR-8 ovarian): > 100 µM | TGI (RPMI-8226 leukemia): 93.4 µM | TGI (SN12C renal): > 100 µM | TGI (SNB-19 CNS): > 100 µM | TGI (OVCAR-5 ovarian): > 100 µM | TGI (MOLT-4 leukemia): 24.7 µM | TGI (TK-10 renal): 38.9 µM | TGI (CCRF-CEM leukemia): 38.5 µM | TGI (EKVX NSCLC): > 100 µM | TGI (U251 CNS): 33.7 µM | TGI (SF-295 CNS): 25.2 µM | TGI (A498 renal): 35.6 µM | TGI (M14 melanoma): > 100 µM | TGI (NCI-H460 lung): 29.5 µM | TGI (NCI-H226 lung): 55.9 µM | TGI (MALME-3M melanoma): 44.5 µM | TGI (PC-3 prostate): 14.4 µM | TGI (HT29 colon): 15.2 µM | TGI (BT-549 breast): 46.9 µM | TGI (UO-31 renal): > 100 µM | TGI (HS 578T breast): 75.1 µM | TGI (LOX IMVI melanoma): > 100 µM | TGI (SW-620 colon): 57.9 µM | TGI (IGROV1 ovarian): 48.6 µM | TGI (HCT-116 colon): 13.5 µM | TGI (SF-268 CNS): 26.2 µM | TGI (KM12 colon): 38.7 µM | TGI (OVCAR-3 ovarian): 6.25 µM | TGI (A549 NSCLC): > 100 µM | TGI (SNB-75 CNS): 29.3 µM | TGI (HCT-15 colon): 21.6 µM | TGI (HCC-2998 colon): > 100 µM | TGI (MDA-MB-231 breast): 37.7 µM | TGI (K-562 leukemia): 68.6 µM | TGI (COLO 205 colon): 14.7 µM | TGI (HOP-92 NSCLC): > 100 µM | TGI (SK-OV-3 ovarian): 40.7 µM
